From ChEMBL document CHEMBL1221220, “Transport and signaling via the amino acid binding site of the yeast Gap1 amino acid transceptor” (Nat Chem Biol, 2009)
Residue numbers refer to the chain shown, from its start. Activity calls are given as the source filed them. The rule behind the calls is not given here.

Experiments:
[1] = tested on: General amino-acid permease GAP1 (Saccharomyces cerevisiae), P19145 [V389C]; experiment: Induction of yeast Gap1 V389C mutant-mediated trehalose activation at 2 mM in presence of 10 mM MTSEA treated before compound addition
[2] = tested on: T1, General amino-acid permease GAP1 (Saccharomyces cerevisiae), P19145 [C397C]; experiment: Induction of yeast Gap1 C397C mutant-mediated […] activation at 2 mM in presence of 10 mM MTSEA treated before compound addition
T1 sequence (whole entry): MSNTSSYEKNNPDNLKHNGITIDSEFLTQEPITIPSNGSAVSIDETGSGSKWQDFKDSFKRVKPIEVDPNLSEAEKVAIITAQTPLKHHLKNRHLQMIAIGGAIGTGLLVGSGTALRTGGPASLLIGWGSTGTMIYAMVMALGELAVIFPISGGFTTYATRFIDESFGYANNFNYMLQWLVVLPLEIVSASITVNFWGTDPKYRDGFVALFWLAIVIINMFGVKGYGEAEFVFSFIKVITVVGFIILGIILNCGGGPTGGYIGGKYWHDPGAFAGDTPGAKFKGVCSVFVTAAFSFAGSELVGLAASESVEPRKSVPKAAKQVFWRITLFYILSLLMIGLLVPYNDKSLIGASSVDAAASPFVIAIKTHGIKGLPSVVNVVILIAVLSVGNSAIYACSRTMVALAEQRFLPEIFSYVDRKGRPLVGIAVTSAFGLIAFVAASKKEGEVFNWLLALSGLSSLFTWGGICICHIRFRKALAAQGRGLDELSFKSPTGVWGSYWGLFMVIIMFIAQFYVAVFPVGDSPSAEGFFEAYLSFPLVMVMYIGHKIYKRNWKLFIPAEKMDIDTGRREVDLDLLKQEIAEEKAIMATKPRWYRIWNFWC

[3] = tested on: T1, General amino-acid permease GAP1 (Saccharomyces cerevisiae), P19145 [C397C]; experiment: Induction of yeast Gap1 C397C mutant-mediated trehalose activation at 10 mM
[4] = tested on: T2, General amino-acid permease GAP1 (Saccharomyces cerevisiae), P19145 [G390C]; experiment: Induction of yeast Gap1 G390C mutant-mediated trehalose activation at 10 mM
T2 sequence (whole entry): T1 sequence (whole entry) with G390C

[5] = tested on: T3, General amino-acid permease GAP1 (Saccharomyces cerevisiae), P19145 [A403C]; experiment: Induction of yeast Gap1 A403C mutant-mediated […] activation at 2 mM in presence of 10 mM MTSEA treated before compound addition
T3 sequence (whole entry): T1 sequence (whole entry) with A403C

Saccharomyces cerevisiae = experiment: Activation of yeast Gap1 L404 mutant-mediated amino acid uptake at 10 mM
[6] = tested on: T4, General amino-acid permease GAP1 (Saccharomyces cerevisiae), P19145 [L383C]; experiment: Induction of yeast Gap1 L383C mutant-mediated amino acid uptake at 2 mM in presence of 10 mM MTSEA treated before compound addition
T4 sequence (whole entry): T1 sequence (whole entry) with L383C

Chain of General amino-acid permease GAP1 (Saccharomyces cerevisiae), P19145 [V389C] (P19145 whole entry V389C): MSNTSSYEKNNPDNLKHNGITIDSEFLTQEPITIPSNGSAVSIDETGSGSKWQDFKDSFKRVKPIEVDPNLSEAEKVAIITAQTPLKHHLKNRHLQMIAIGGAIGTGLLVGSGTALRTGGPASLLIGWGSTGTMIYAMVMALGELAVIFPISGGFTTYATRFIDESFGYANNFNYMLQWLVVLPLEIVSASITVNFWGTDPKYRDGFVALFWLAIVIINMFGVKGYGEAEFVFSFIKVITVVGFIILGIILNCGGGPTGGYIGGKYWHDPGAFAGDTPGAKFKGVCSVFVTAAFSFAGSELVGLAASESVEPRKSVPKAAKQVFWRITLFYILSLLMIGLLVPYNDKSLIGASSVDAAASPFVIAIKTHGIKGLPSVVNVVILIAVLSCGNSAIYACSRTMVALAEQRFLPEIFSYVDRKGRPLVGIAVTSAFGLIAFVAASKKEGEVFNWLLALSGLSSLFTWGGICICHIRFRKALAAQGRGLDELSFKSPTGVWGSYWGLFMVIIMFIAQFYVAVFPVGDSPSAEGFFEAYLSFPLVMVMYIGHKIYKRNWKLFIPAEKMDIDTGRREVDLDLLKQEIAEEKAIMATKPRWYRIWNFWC

- inhibition [1]: inactive
- inhibition [2]: Active
- Activity [3]: inactive
- Activity [4]: inactive
- inhibition [5]: Active
- Activity (Saccharomyces cerevisiae): inactive
- Activity [6]: Active
Compound: NC(=O)NCCC[C@H](N)C(=O)O
